Paper PMC4898786 (Nature, 2016)

Key:
ts2 SERT (I291A, T439S) = ts2 SERT (I291A, T439S) (Homo sapiens, UniProt P31645, C554A/C580A/C622A/I291A/T439S)
[1] = target: ts3 SERT (Y110A, I291A, T439S) (Homo sapiens, UniProt P31645, C554A/C580A/C622A/I291A/T439S/Y110A); test: [14C]5-HT uptake in transfected HEK293 cells, Michaelis-Menten; type: cell-based

NCCc1c[nH]c2ccc(O)cc12 [serotonin, 5-hydroxytryptamine]
Vmax of serotonin transport (ts2 SERT (I291A, T439S)): 21 ± 5 pmol/min | Km (ts2 SERT (I291A, T439S); read-out: KM of serotonin transport): 4.5 ± 0.6 µM | serotonin transport activity [1]: No detectable transport activity
